Assay results as given in ChEMBL document CHEMBL1201862, “PubChem BioAssay data set” (2004).
Active and inactive are the calls of the source.

Key:
[1] = Luminescence Cell-Based Dose Retest to Confirm Inhibitors of Cancer Stem Cells. [Related pubchem assays (depositor defined):AID2717, AID2721]; assay type: functional; conditions: Homo sapiens
[2] = Fluorescence-based cell-based high throughput dose response assay for inhibitors of the interaction of nucleotide-binding oligomerization domain containing 2 (NOD2) and the receptor-interacting serine-threonine kinase 2 (RIPK2).; assay type: functional; conditions: Homo sapiens
[3] = P. falciparum late gametocyte killing, dose response, luminescence (AID 1117278); assay type: functional, cell-based;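 also: gametocytes exposed to compound for 24 hours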
[4] = Jurkat T cell cytotoxicity, dose response, cytotoxicity control for P. falciparum gametocyte viability project, luminescence (AID 1117277); assay type: functional, cell-based;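 also: potency reflects loss of cellular ATP meaning fewer viable cells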
[5] = target: T1, Sentrin-specific protease 8 (Homo sapiens, UniProt Q96LD8); assay type: functional
T1 sequence (Q96LD8 whole entry): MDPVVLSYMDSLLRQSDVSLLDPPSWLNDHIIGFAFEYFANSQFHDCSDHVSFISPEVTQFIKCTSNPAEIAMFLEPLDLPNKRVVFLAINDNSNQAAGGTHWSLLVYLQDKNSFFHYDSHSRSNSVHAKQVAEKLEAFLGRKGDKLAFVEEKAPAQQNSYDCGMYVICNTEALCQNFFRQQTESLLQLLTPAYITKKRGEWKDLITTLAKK

[6] = target: T1, Sentrin-specific protease 8; assay type: functional; remark: listed apart in the source
[7] = target: NAD-dependent protein deacylase sirtuin-5, mitochondrial (Homo sapiens, UniProt Q9NXA8); assay: SIRT5 desuccinylase inhibitors, dose response, biochemical, fluorescence imaging, cherry-pick, set 5 (AID 720591);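 also: desuccinylation of succinyl peptide AMC substrate read as fluorescence after trypsin release; potency of inhibitors that lower fluorescence and may act on trypsin instead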
Cysteine protease ATG4B = target: T2, Cysteine protease ATG4B (Homo sapiens, UniProt Q9Y4P1); assay type: functional;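 also: Fluorescence-based dose-response confirmation assay measuring inhibition of ATG4B activity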
T2 sequence (Q9Y4P1 whole entry): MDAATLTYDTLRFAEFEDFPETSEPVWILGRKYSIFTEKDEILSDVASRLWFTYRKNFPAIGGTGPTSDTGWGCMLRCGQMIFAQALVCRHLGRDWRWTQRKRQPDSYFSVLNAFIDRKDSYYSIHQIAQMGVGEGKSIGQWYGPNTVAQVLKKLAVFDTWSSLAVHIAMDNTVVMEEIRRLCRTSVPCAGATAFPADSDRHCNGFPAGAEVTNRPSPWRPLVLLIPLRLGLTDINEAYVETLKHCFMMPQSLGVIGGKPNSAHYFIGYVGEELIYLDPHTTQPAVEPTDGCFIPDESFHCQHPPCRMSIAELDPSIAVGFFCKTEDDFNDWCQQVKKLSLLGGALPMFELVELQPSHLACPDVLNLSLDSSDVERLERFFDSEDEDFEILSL

[8] = target: Heat shock protein HSP 90-alpha (Homo sapiens, UniProt P07900); assay type: functional, organism-based
Phospholipase A2 = Phospholipase A2 (Homo sapiens, UniProt P04054); assay type: functional;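 also: confirmatory dose-response counterscreen on phospholipase A2, testing hits that came from an ultra-high-throughput screen for ATG4B inhibitors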
[9] = target: T3, Mannose-6-phosphate isomerase (Homo sapiens, UniProt P34949); assay: human PMI inhibitors, high substrate, primary screen, biochemical, fluorescence intensity, high mannose 6-phosphate (AID 1220)
T3 sequence (P34949 whole entry): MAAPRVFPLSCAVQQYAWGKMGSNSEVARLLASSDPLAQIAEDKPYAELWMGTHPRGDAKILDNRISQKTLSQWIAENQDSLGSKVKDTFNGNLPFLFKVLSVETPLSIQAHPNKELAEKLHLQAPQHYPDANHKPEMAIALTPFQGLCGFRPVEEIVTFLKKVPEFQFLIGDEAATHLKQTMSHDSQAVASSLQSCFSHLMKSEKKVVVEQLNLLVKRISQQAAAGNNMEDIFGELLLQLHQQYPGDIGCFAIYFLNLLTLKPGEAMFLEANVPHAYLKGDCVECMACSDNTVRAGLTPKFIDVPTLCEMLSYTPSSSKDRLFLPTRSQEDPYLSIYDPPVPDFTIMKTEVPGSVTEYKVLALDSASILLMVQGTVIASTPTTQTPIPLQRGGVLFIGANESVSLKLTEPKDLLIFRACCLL

[10] = target: T4, Rac GTPase-activating protein 1 (Homo sapiens, UniProt Q9H0H5); assay: MgcRacGAP GTPase-activating activity inhibitors, confirmation, biochemical, ADP Hunter fluorescence, primary and confirmatory (AID 624330); assay type: functional
T4 sequence (Q9H0H5 whole entry): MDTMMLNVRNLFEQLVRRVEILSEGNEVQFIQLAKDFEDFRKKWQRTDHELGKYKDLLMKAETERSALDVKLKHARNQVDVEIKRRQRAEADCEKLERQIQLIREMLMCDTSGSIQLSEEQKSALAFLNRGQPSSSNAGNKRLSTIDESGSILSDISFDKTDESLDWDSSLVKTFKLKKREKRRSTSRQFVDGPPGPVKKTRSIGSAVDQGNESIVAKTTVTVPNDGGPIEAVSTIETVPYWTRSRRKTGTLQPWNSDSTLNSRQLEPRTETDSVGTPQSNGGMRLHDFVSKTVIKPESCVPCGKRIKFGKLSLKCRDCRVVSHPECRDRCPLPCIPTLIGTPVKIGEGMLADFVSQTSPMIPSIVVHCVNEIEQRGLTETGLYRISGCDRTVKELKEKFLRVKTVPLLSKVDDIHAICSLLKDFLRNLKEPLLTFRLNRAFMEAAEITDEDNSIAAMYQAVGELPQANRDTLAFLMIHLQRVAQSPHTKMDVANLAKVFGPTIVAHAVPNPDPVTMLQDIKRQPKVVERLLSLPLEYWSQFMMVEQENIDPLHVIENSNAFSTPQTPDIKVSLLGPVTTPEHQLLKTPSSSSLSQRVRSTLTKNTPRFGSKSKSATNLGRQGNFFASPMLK

HEK293 [11] = assay: inhibitors of LMP1-driven NF-kB reporter, dose response, cell-based, HEK293, luciferase, cherry-pick (AID 588343); assay type: functional; conditions: Homo sapiens
HEK293 [12] = assay: cells; assay type: functional, cell-based; conditions: Homo sapiens
[13] = target: T5, Nuclear receptor subfamily 0 group B member 1 (Homo sapiens, UniProt P51843); assay: Luminescence-based cell-based high throughput dose response assay for inhibitors of the orphan nuclear receptor subfamily 0, group B, member 1 (DAX1; NR0B1). [Related pubchem assays (depositor defined):AID504766, AID504790]; assay type: functional
T5 sequence (P51843 whole entry): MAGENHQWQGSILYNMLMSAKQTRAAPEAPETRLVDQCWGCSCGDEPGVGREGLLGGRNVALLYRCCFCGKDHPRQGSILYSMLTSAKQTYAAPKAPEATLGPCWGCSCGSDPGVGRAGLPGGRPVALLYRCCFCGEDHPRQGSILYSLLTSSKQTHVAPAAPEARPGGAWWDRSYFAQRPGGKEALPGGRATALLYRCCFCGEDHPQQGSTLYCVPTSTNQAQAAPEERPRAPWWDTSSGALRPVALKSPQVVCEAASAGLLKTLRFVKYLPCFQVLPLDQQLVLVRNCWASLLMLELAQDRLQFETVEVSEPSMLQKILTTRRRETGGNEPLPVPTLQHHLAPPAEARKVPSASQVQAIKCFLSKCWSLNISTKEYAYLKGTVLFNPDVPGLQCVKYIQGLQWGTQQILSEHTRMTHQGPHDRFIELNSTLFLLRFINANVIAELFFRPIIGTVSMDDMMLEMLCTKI

Vero = assay: Vero cell toxicity, dose response, cytotoxicity control, plate reader, cherry-pick samples (AID 687020); assay type: functional, cell-based; conditions: Chlorocebus sabaeus
[14] = Shn3 3'UTR reporter inhibitors, dose response, cell-based, Clone20 osteoblasts, firefly luciferase, cherry-picked (AID 624132); assay type: functional;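 also: firefly luciferase luminescence from reporter carrying the Shn3 3'UTR in osteoblasts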
[15] = HepG2 cell cytotoxicity, dose response, cytotoxicity control for Shn3 inhibitor project, CellTiter-Glo, cherry-picked (AID 624134); assay type: functional, cell-based
[16] = control 3'UTR Renilla luciferase suppression, dose response, counter-screen for Shn3 inhibitor project, cell-based, Clone20-Shn3RL, cherry-picked (AID 624133); assay type: functional
Paired box protein Pax-8 = Paired box protein Pax-8 (Homo sapiens, UniProt Q06710); assay: inhibitors of PAX8-driven TPO luciferase reporter, dose response, RMG-I cells, cherry-pick (AID 687027); assay type: functional, cell-based;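 also: luciferase reporter driven by Pax8 target thyroperoxidase promoter measured by SteadyGlo luminescence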
[17] = HeLa cell cytotoxicity, dose response, cytotoxicity control for MgcRacGAP inhibitor project (AID 624300); assay type: functional
[18] = A549 cell cytotoxicity, dose response, cytotoxicity control, plate reader, cherry-pick, antagonist series (AID 743412); assay type: functional, cell-based
[19] = HepG2 cell cytotoxicity, dose response, cytotoxicity control, plate reader, cherry-pick, antagonist series (AID 743416); assay type: functional, cell-based
[20] = LGR2 antagonists, dose response, cell-based, HEK293, CRE-luciferase reporter, cherry pick, set 2 (AID 743343); assay type: functional;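 also: transfected cells were stimulated with diluted bursicon conditioned medium after compound addition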
[21] = MC4R antagonists, dose response, counter-screen for LGR2 antagonist project, cell-based, plate reader, cherry pick (AID 743444); assay type: functional;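 also: transfected HEK 293 cells stimulated with alpha-MSH peptide; potency of inhibitors of the alpha-MSH evoked signal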
[22] = HeLa 2N DNA content increase, dose response, cell-based, IC50 (AID 1117349); assay type: functional
[23] = HeLa 4N DNA content increase, dose response, cell-based, IC50 (AID 1117351); assay type: functional

Sequence of NAD-dependent protein deacylase sirtuin-5, mitochondrial (Q9NXA8 whole entry): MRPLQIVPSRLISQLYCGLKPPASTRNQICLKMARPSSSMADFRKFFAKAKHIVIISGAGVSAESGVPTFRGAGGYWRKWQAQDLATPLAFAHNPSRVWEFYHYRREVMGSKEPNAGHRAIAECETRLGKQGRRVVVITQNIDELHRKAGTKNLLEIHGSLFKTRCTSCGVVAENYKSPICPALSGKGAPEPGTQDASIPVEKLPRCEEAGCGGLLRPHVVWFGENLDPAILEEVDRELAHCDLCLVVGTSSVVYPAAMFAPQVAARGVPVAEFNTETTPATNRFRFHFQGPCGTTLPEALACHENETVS
Sequence of Phospholipase A2 (P04054 whole entry): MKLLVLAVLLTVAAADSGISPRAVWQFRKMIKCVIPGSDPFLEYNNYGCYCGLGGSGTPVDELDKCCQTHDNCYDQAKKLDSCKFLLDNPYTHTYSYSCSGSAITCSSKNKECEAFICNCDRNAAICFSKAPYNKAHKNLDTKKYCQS
Sequence of Paired box protein Pax-8 (Q06710 whole entry): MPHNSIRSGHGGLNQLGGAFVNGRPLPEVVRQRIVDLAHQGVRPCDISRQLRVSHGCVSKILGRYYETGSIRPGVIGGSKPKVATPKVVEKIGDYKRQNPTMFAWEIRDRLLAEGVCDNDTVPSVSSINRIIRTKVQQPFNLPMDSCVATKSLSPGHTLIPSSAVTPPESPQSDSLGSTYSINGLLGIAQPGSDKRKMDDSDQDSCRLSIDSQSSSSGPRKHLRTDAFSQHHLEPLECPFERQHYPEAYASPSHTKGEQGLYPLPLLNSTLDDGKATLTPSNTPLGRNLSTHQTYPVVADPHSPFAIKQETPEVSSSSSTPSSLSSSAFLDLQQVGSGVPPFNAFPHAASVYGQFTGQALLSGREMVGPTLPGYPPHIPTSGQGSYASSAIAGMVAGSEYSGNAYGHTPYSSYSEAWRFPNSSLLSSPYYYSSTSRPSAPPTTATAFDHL

O=C(CN(c1cccc(C(F)(F)F)c1)S(=O)(=O)c1ccc(Cl)c([N+](=O)[O-])c1)NCc1ccc(F)cc1
AC50 [1]: 1.81 µM (active) | IC50 [2]: 5.86 µM (active)

SC1=NC[C@H](c2ccccc2)N1CCCCC1CCCCC1
IC50 [3]: > 109 µM (inactive) | IC50 [4]: 79.3 µM (inactive)

CCN(CC)CC(=O)Nc1ccc2c(c1)N(C(=O)CN(CC)CC)c1ccccc1CC2
IC50 [5]: 19.1 µM (active) | IC50 [6]: 15.4 µM (active)

COc1cccc(-n2c(SCC(N)=O)nnc2-c2ccco2)c1
AC50 [7]: 22.1 µM (active)

Oc1ccc(N=Nc2nc(-c3ccccc3)c(-c3ccccc3)[nH]2)cc1
AC50 [1]: 3.9 µM (active) | IC50 (Cysteine protease ATG4B): 9.13 µM (active) | AC50 [8]: 4.75 µM (active) | IC50 (Phospholipase A2): 6.36 µM (active)

COc1ccc2c(c1)-c1nc(N)sc1CC2
IC50 [9]: 23.8 µM (active) | IC50 [10]: 29.5 µM (active)

CC(NC(=O)CCc1nnc(CCCc2ccccc2)o1)c1ccccc1 (stereo not drawn)
IC50 [3]: > 109 µM (inactive) | IC50 [4]: > 83.3 µM (inactive)

Cc1cc(C)nc(N=C(Nc2ccccc2Br)NS(=O)(=O)Cc2ccccc2)n1
AC50 (HEK293 [11]): 33.5 µM (active)

O=C(Nc1ccccc1)C(Cl)C(=O)c1ccccc1 (stereo not drawn)
AC50 [8]: 0.786 µM (active)

COc1ccc(S(=O)(=O)NCc2ccc(C(=O)NCc3cccnc3)cc2)cc1
IC50 [3]: > 109 µM (inactive) | IC50 [4]: > 83.3 µM (inactive)

O=C(CCc1nc2ccccc2[nH]1)N1CCc2ccccc2C1
IC50 [5]: > 100 µM (inactive) | IC50 [6]: 17.6 µM (active)

CCCCC(=O)/N=C(\N)Nc1nc2ccccc2o1
IC50 (HEK293 [12]): > 67.6 µM (inactive) | IC50 [13]: > 67.6 µM (inactive)

CC(C)(C)OC(=O)NCCCCCNC(=O)c1[nH]cnc1C(=O)N1CCc2ccccc2C1
IC50 [5]: > 100 µM (inactive) | IC50 [6]: 14.9 µM (active)

Cc1cccc(COC(=O)CCCNC(=O)c2ccc(Cl)cc2)c1
AC50 [8]: 8.04 µM (active)

O=C1c2ccccc2[C@@H]2C[C@@H](O)[C@H](Nc3cccc4ccccc34)CCN12
AC50 (Vero): 29.8 µM (active)

O=C(O)c1ccc(CNCc2cccc(Cl)c2)cc1
AC50 [7]: > 30 µM (inactive)

O=C(NN=Cc1ccc(N(CCCl)CCCl)cc1Cl)c1cccnc1
AC50 (HEK293 [11]): 1.26 µM (active)

CC(CNC(=O)Cn1ccc(NC(=O)OCc2ccccc2)nc1=O)c1ccccc1 (stereo not drawn)
AC50 (Vero): 24.6 µM (active)

CC(OC(=O)c1ccc2c(=O)n3c(nc2c1)CCC3)C(=O)NC1CCCCC1C (stereo not drawn)
AC50 (Vero): 31.1 µM (active)

CCOc1ccc(NC(=O)COC(=O)Cc2ccsc2)cc1
AC50 [7]: 22.3 µM (active)

C=C1C(=O)[C@]23C[C@H]1CCC2[C@]1(C)CCC[C@@](C)(C(=O)O)C1C[C@@H]3O (stereo partly drawn)
AC50 [14]: 1.2 µM (active) | AC50 [15]: > 70 µM (inactive) | AC50 [16]: 8.47 µM (active) | IC50 [2]: 7.03 µM (active) | AC50 (Paired box protein Pax-8): 1.77 µM (active)

O=c1c(-c2ccccc2)c[nH]n1-c1cccc([N+](=O)[O-])c1
IC50 (HEK293 [12]): > 67.5 µM (inactive) | IC50 [13]: > 67.5 µM (inactive) | CC50 [17]: 100 µM (active) | IC50 [10]: 48.4 µM (active)

C[C@H]1CN([C@@H](C)CO)C(=O)c2cccc(NC(=O)NC3CCCCC3)c2O[C@@H]1CN(C)Cc1ccc(C(F)(F)F)cc1
AC50 [18]: 19.2 µM (active) | AC50 [19]: 26.4 µM (active) | AC50 [20]: 46.4 µM (active) | AC50 [21]: 17.1 µM (active)

CC(C)=CCC/C(C)=C/CC/C(C)=C/C(=O)OCC(=O)[C@@]1(O)CC[C@H]2[C@@H]3CCC4=CC(=O)C=C[C@]4(C)[C@H]3[C@@H](O)C[C@@]21C
IC50 [22]: > 10 µM (inactive) | IC50 [23]: > 10 µM (inactive)

O=C(CNc1cccc2ccccc12)N/N=C/c1ccc(OC(=O)/C=C/c2ccco2)cc1
IC50 [9]: > 50 µM (not active)
